Patent US10729680B2, “5-substituted 2-(morpholin-4-yl)-1,7-naphthyridines” (BAYER PHARMA AKTIENGESELLSCHAFT, priority 2016, dated 2020)

These molecules were tested against full-length human ATR protein (ATR/ATRIP) (Homo sapiens (Human), UniProt Q13535) (assay: Binding Assay ATR (TR-FRET, tracer A displacement)). Details: displacement of fluorescent tracer A from GST-ATR/ATRIP.
Text: To determine of binding activity of the test compounds, full-length human ATR protein was expressed and purified together with ATRIP as described above. Furthermore, a fluorescently labelled compound (tracer A as described above) was used as a tracer molecule. Detection of the binding event of the tracer was achieved by time-resolved fluorescence energy transfer (TR-FRET). We used an anti-GST-Terbium antibody (CisBio) that binds to the GST-tag at the N-terminus of ATR-kinase. Excitation of Terbium with 337 nm light results in emission of fluorescent light with 545 nm. In case a tetrameric complex has formed (antiGST-Tb+GST-ATR+Strp2-ATRIP+tracer), part of the energy will be transferred from the Terbium to the fluorophore that itself emits light of 570 nm. Displacement of the fluorescent tracer by a test compound leads to a reduction of the TR-FRET-signal.
For the assay 50 nl of a 100-fold concentrated solution of the test compound in DMSO was pipetted into a black low volume 384 well microtiter plate (MTP, Greiner Bio-One, Frickenhausen, Germany). To prepare the ATR-working solution, ATR/ATRIP stock solution was diluted in assay buffer [50 mM HEPES (pH 7.0), 10 mM MgCl2, 1 mM DTT, 0.01% (w/v) Igepal, 0.01% (w/v) BSA] to 4.2 nM protein concentration (concentration may vary from lot to lot of protein preparation). AntiGST-Tb antibody was diluted to 4.2 nM. The ATR-working solution was incubated for 30 min at 22° C. prior to dispensing to pre-form the complex of antiGST-Tb+GST-ATR+ATRIP. Then, 3 μl of the ATR-working solution were added to the test compound and the mixture was incubated for 10 min at 22° C. to allow pre-binding of the test compounds to ATR/ATRIP. Then, 2 μl of a 100 nM solution of tracer A in assay buffer were added to the ATR-working solution. The resulting mixture was incubated for 30 min at 22° C. The measurement of the TR-FRET signal was performed in a standard HTRF-compatible MTP reader instrument (e.g. BMG Pherastar) by recording the fluorescence emissions at 545 nm and 570 nm after excitation at 337-350 nm. The ratio between emission at 570 nm divided by emission at 545 nm was calculated to give the well ratio. The experimental data (well ratios) were normalised by the following way: positive control contained ATR-working solution plus tracer A solution (=0% inhibition), the negative control contained all components except GST-ATR/ATRIP (=100% inhibition). Usually the compounds were tested on the same MTP in 11 different concentrations in the range of 20 μM to 0.1 nM (20 μM, 5.9 μM, 1.7 μM, 0.51 μM, 0.15 μM, 44 nM, 13 nM, 3.8 nM, 1.1 nM, 0.33 nM and 0.1 nM). The dilution series were prepared separately before the assay on the level of the 100 fold concentrated solutions in DMSO by serial 1:3.4 dilutions in duplicate values for each concentration. IC50 values were calculated by a 4 parameter fit using standard software (GraphPad prism or equivalent).

Sequence of full-length human ATR protein (ATR/ATRIP) (Q13535 other isoform, or with tags, fused parts or gaps): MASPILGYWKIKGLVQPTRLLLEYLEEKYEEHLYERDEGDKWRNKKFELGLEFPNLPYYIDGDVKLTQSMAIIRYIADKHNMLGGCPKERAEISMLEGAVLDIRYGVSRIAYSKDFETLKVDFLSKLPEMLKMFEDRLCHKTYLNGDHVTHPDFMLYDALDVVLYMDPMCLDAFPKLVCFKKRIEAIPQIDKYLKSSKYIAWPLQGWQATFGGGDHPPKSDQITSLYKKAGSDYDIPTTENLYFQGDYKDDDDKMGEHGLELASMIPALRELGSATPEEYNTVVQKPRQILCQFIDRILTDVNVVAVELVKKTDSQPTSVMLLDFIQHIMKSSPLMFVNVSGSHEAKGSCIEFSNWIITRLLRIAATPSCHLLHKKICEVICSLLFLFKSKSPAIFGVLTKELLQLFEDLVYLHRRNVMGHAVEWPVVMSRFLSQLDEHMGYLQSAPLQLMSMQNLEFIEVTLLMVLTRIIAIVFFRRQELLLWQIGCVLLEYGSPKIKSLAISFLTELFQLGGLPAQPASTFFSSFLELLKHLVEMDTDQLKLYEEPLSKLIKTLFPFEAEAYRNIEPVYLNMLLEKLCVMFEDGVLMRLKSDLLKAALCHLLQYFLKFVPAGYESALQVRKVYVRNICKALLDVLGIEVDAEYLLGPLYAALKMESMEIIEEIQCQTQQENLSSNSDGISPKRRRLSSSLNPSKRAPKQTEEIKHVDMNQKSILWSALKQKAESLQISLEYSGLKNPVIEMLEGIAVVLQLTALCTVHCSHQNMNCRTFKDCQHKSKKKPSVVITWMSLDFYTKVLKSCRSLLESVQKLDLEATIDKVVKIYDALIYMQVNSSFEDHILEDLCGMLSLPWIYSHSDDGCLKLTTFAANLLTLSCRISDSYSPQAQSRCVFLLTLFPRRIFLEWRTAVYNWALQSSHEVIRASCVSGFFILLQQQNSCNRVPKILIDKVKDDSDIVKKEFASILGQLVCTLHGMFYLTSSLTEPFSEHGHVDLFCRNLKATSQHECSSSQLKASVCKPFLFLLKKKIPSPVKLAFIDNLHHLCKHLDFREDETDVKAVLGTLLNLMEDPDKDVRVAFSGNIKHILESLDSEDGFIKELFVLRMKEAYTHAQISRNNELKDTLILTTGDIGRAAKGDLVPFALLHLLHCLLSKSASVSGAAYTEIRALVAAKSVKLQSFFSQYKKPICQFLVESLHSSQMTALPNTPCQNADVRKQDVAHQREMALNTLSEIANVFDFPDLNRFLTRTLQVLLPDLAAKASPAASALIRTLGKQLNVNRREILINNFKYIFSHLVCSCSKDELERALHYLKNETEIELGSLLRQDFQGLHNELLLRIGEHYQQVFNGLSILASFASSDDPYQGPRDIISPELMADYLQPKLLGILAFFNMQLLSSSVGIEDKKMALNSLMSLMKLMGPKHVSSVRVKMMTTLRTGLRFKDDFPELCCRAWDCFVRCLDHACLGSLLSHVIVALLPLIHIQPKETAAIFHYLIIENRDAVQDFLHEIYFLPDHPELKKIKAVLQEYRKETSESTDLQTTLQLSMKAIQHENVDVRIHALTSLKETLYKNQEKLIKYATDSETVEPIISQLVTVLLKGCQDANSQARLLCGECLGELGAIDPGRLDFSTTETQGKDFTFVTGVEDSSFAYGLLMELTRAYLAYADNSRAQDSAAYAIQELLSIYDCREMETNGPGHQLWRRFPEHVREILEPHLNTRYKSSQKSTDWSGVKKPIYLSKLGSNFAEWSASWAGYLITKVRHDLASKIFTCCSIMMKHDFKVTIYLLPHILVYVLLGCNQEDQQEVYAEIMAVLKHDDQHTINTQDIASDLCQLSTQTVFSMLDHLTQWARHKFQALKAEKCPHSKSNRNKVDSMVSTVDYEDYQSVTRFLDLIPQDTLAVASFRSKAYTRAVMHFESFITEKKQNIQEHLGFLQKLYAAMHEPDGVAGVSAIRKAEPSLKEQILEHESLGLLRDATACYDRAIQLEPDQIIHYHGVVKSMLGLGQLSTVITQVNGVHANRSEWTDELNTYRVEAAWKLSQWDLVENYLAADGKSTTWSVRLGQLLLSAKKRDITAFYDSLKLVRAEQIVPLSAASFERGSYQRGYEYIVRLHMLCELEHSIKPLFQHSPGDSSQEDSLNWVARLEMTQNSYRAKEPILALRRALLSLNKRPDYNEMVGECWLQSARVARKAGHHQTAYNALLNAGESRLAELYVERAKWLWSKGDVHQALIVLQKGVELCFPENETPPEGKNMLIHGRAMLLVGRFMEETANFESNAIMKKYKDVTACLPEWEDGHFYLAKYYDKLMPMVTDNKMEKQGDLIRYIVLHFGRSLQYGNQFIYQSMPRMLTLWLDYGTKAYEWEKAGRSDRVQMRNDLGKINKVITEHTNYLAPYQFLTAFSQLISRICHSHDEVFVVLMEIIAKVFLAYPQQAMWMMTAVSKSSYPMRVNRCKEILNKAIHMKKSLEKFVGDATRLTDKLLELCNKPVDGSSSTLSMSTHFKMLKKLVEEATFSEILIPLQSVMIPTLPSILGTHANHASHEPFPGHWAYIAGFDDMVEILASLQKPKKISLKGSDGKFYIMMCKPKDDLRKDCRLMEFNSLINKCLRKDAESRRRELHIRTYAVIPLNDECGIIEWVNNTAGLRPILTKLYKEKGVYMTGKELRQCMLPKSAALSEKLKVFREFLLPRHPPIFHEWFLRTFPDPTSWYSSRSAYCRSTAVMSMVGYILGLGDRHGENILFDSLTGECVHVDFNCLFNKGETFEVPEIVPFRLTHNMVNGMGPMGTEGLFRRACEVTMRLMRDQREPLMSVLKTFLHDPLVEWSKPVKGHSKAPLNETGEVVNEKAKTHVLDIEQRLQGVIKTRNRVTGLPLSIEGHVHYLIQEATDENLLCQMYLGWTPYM
Sequence of full-length human ATR protein (ATR/ATRIP) (Q8WXE1 other isoform, or with tags, fused parts or gaps partner): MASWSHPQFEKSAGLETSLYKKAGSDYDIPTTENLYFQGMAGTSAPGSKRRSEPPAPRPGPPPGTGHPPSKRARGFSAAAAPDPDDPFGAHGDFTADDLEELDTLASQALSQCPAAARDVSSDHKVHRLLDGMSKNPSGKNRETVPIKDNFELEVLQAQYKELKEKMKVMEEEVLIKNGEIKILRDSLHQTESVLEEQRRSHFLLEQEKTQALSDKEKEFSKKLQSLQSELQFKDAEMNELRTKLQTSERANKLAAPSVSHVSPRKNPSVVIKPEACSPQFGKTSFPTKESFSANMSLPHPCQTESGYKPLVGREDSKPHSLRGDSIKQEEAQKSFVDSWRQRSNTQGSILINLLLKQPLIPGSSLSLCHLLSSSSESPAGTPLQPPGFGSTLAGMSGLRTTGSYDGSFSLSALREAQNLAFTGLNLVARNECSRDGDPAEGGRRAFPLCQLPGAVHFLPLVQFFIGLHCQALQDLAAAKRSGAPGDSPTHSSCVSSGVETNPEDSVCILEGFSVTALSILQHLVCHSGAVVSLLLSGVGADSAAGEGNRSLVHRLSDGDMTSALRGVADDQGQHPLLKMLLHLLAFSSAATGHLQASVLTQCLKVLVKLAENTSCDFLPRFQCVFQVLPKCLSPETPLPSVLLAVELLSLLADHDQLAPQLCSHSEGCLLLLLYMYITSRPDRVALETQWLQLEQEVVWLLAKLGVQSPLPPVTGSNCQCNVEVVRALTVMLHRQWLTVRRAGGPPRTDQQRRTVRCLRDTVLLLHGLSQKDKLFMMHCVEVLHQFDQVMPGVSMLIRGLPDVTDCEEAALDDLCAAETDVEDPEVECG

First: Cc1cnc(-c2ccn[nH]2)c2nc(N3CCOC[C@H]3C)cc(-c3cccc(C(=O)N(C)C)c3)c12 [Example 55, N,N-dimethyl-3-{5-methyl-2-[(3R)-3-methylmorpholin-4-yl]-8-(1H-pyrazol-5-yl)-1,7-naphthyridin-4-yl}benzamide]
Second: Cc1cnc(-c2ccn[nH]2)c2nc(N3CCOC[C@H]3C)cc(-c3cccc(OC(C)C)c3)c12 [Example 60, 5-methyl-2-[(3R)-3-methylmorpholin-4-yl]-4-[3-(propan-2-yloxy)phenyl]-8-(1H-pyrazol-5-yl)-1,7-naphthyridine]
The IC50 of the first is 3.3-fold lower: 40.6 nM for the first, 132 nM for the second. The first is the more potent here.

Going from COc1cc(OC)cc(-c2cc(N3CCOC[C@H]3C)nc3c(-c4ccn[nH]4)ncc(C)c23)c1 [Example 42, 4-(3,5-dimethoxyphenyl)-5-methyl-2-[(3R)-3-methylmorpholin-4-yl]-8-(1H-pyrazol-5-yl)-1,7-naphthyridine] to COCc1cccc(-c2cc(N3CCOC[C@H]3C)nc3c(-c4ccn[nH]4)ncc(C)c23)c1 [Example 56, 4-[3-(methoxymethyl)phenyl]-5-methyl-2-[(3R)-3-methylmorpholin-4-yl]-8-(1H-pyrazol-5-yl)-1,7-naphthyridine], the IC50 falls from 112 nM to 62.4 nM (1.8-fold). The second is the more potent here.

Going from COc1ncccc1-c1cc(N2CCOC[C@H]2C)nc2c(-c3ccn[nH]3)ncc(C)c12 [Example 50, 4-(2-methoxypyridin-3-yl)-5-methyl-2-[(3R)-3-methylmorpholin-4-yl]-8-(1H-pyrazol-5-yl)-1,7-naphthyridine] to Cc1cnc(-c2ccn[nH]2)c2nc(N3CCOC[C@H]3C)cc(-c3ccc(F)nc3)c12 [Example 49, 4-(6-fluoropyridin-3-yl)-5-methyl-2-[(3R)-3-methylmorpholin-4-yl]-8-(1H-pyrazol-5-yl)-1,7-naphthyridine], the IC50 falls from 72.2 nM to 28.6 nM (2.5-fold). The second is the more potent here.

Cc1cnc(-c2ccn[nH]2)c2nc(N3CCOC[C@H]3C)cc(-c3cccc4[nH]ccc34)c12 [Example 44, 4-(1H-indol-4-yl)-5-methyl-2-[(3R)-3-methylmorpholin-4-yl]-8-(1H-pyrazol-5-yl)-1,7-naphthyridine] and Cc1cnc(-c2ccn[nH]2)c2nc(N3CCOC[C@H]3C)cc(-c3ccc(F)cc3)c12 [Example 24, 4-(4-fluorophenyl)-5-methyl-2-[(3R)-3-methylmorpholin-4-yl]-8-(1H-pyrazol-5-yl)-1,7-naphthyridine] are within 1.5-fold of each other in IC50: 35.5 nM for the first, 34.7 nM for the second.

Going from Cc1cnc(-c2ccn[nH]2)c2nc(N3CCOC[C@H]3C)cc(P(C)(C)=O)c12 [Example 18, 4-(dimethylphosphoryl)-5-methyl-2-[(3R)-3-methylmorpholin-4-yl]-8-(1H-pyrazol-5-yl)-1,7-naphthyridine] to Cc1cnc(-c2ccn[nH]2)c2nc(N3CCOC[C@H]3C)cc(-c3ccc(Cl)cc3Cl)c12 [Example 22, 4-(2,4-dichlorophenyl)-5-methyl-2-[(3R)-3-methylmorpholin-4-yl]-8-(1H-pyrazol-5-yl)-1,7-naphthyridine], the IC50 falls from 66.4 nM to 16.4 nM (4-fold). The second is the more potent here.

First: Cc1cnc(-c2ccn[nH]2)c2nc(N3CCOC[C@H]3C)cc(-c3ccc4c(c3)OCCO4)c12 [Example 21, 4-(2,3-dihydro-1,4-benzodioxin-6-yl)-5-methyl-2-[(3R)-3-methylmorpholin-4-yl]-8-(1H-pyrazol-5-yl)-1,7-naphthyridine]
Second: Cc1cnc(-c2ccn[nH]2)c2nc(N3CCOC[C@H]3C)cc(-c3ccc(C(N)=O)cc3)c12 [Example 52, 4-{5-methyl-2-[(3R)-3-methylmorpholin-4-yl]-8-(1H-pyrazol-5-yl)-1,7-naphthyridin-4-yl}benzamide]
The IC50 of the first is 1.7-fold lower: 17.9 nM for the first, 30.2 nM for the second.

First: Cc1cnc(-c2ccn[nH]2)c2nc(N3CCOC[C@H]3C)cc(-c3cncc4ccccc34)c12 [Example 58, 4-(isoquinolin-4-yl)-5-methyl-2-[(3R)-3-methylmorpholin-4-yl]-8-(1H-pyrazol-5-yl)-1,7-naphthyridine]
Second: Cc1cnc(-c2ccn[nH]2)c2nc(N3CCOC[C@H]3C)cc(-c3ccc(NS(C)(=O)=O)cc3)c12 [Example 32, N-(4-{5-methyl-2-[(3R)-3-methylmorpholin-4-yl]-8-(1H-pyrazol-5-yl)-1,7-naphthyridin-4-yl}phenyl)methanesulfonamide]
The IC50 of the first is 9.3-fold higher: 40 nM for the first, 4.31 nM for the second. The second is the more potent here.
